Results published in patent publication US20220395500A1, “SMALL MOLECULE ACTIVATORS OF INTERFERON REGULATORY FACTOR 3 AND METHODS OF USE THEREOF” (Neuralexo, Inc., priority 2020, published 2022).

What was measured:
J774-Dual cells = assay: J774-Dual cytotoxicity; type: cell-based, mouse; settings: Mouse Reporter Cell Line J774; read-out: J774 cytotox CC50
How it was run: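 CC50 derived from 8-point concentration series in mouse J774-Dual reporter cells, with viability read by CellTiter-Glo in the same plate. Run in parallel with EC50 and ISRE:NFκB ratio determination for cross-species confirmation.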

[1] = test system: Chikungunya Virus (CHIKV); assay: Adjuvant effect on anti-CHIKV total IgG titers (CHIKV VLP prime/boost); type: in vivo, mouse; settings: C57BL/6 mice, IM prime and boost, 3 weeks post-boost
Procedure: Conditions shown include virus-like particle (VLP) alone, VLP+5 mg/kg ND13, VLP+10 mg/kg ND13, VLP+5 mg/kg NA-42, and VLP+10 mg/kg NA-42. Depicted is Log 10 antibody titer representing anti-CHIKV Total IgG. Individual samples are depicted as filled circles for each condition. Bar graphs represent average geometric mean titers for each treatment cohort+standard deviation.
Select chemical entities corresponding to the NA and ND chemofamilies were examined as to their ability to act as adjuvants to enhance vaccine platforms. FIG. 28 depicts a representative example showing how NA-42 and ND-13 can enhance antibody titers to a Chikungunya Virus (CHIKV) challenge. C57BL/6 mice were primed and boosted IM with 10^6 PFU equivalents of CHIKVLP alone or in the presence of ND13 or NA42; 3 weeks post-boost mice were euthanized and total IgG reactive with CHIKV was measured by ELISA in duplicate. Data presented are average geometric mean titers for each treatment cohort including each animal. Specifically, FIG. 28 depicts various conditions (virus-like particle (VLP), VLP+5 mg/kg ND13, VLP+10 mg/kg ND13, VLP+5 mg/kg NA-42, and VLP+10 mg/kg NA-42) plotted against Log 10 antibody titer representing Anti-CHIKV Total IgG.

[2] = test system: IP-10 in mBMDMs (wild-type and IRF3 KO); assay: IP-10 induction in mouse bone marrow derived macrophages (ELISA); type: cell-based; settings: increasing concentrations, wild-type vs IRF3 knock-out cells
Procedure: IP-10 levels were determined by mouse CXCL10/IP10 ELISA (Invitrogen, Carlsbad, Calif.) and are expressed as pg/ml. Data represents group mean+/−standard deviation.
IP-10 expression was determined by mouse CXCL10/IP10 ELISA (Invitrogen, Carlsbad, Calif.), and is expressed as pg/ml. Data represents group mean+/−standard deviation.
Target specificity of chemical entities corresponding to the ND and NA chemofamiles was examined by determining dose-dependent expression of IP10, a highly inducible, primary response gene that belongs to the C-X-C chemokine superfamily. […] IP-10 expression was monitored by a mouse CXCL10/IP10 ELISA (Invitrogen, Carlsbad, Calif.), and is expressed at FIG. 20 and FIG. 21 as pg/ml.

[3] = test system: cytokines in mBMDMs (wild-type and IRF3 KO); assay: Cytokine induction in mBMDMs (20-plex ProcartaPlex, Luminex); type: cell-based, mouse; settings: for cytokine induction in mBMDMs (IL6, MCP3, Rantes, TNFa, MCP1, Mip1b, Mip1a, Gro-alpha) vs vehicle: wild-type and IRF3 KO mBMDMs
Procedure: (§1) Cytokine induction is shown for both wild-type mouse mBMDMs and IRF3 KO mouse mBMDMs. Cytokine expression was measured using a cytokine 20-plex mouse ProcartaPlex kit (Invitrogen, Carlsbad, Calif.) for labeling of multiple cytokines within an individual sample and run on a Luminex (Austin, Tex.) 200 instrument. Data is expressed as pg/ml. Shown are group means+/−SEM; […], **p<0.01, ***p<0.001, ****p<0.0001.
as §1, with “(Invitrogen)” for “(Invitrogen, Carlsbad, Calif.)”, “Luminex” for “Luminex (Austin, Tex.)”
as §1, with “expression” for “expression was”, “(Invitrogen)” for “(Invitrogen, Carlsbad, Calif.)”, “Luminex” for “Luminex (Austin, Tex.)”
Cytokine expression at each of FIGS. 22A-23B was monitored using a cytokine 20-plex mouse ProcartaPlex kit (Invitrogen, Carlsbad, Calif.) for labeling of multiple cytokines within an individual sample and run on a Luminex 200 instrument, and is expressed at FIGS. 22A-23B as pg/ml.

[4] = test system: IRF3 activating pathway (TRIF, IPS1, STING) in THF cell lines; assay: Interferon dependent luciferase reporter in telomerized human fibroblasts (THF) lacking adapter molecules; type: cell-based; settings: WT THF, IPS1 KO, 23 μM compound or 313 ng/ml LPS
Procedure: Shown is fold-change of an interferon dependent luciferase reporter expressed in various telomerized human fibroblasts (THF) cell lines lacking key adapter molecules in the IRF3 activating pathway (WT THF, IPS1 KO, STING KO, and TRIF KO) in response to different treatments (untreated, Sendai 1/100, 313 ng/ml LPS, 23 μM NA-42). Shown are group means+/−SEM.
Select chemical entities corresponding to the NA and ND chemofamilies were examined as to their TRIF-dependency of IRF3 induction. TRIF, or TIR-domain-containing adapter-inducing interferon-β, is an adapter in responding to activation of toll-like receptors (TLRs). For reference, FIG. 26A illustrates a cell-signalling pathway including TRIF, along with TLR4, TLR3, IPS1, STING and IRF3. […] The treatment with Sendai 1/100 serves as an IPS1-dependent control, and the treatment with 313 ng/ml LPS serves as a TRIF-dependent control. As shown at FIG. 26B, treatment with 313 ng/ml LPS induces robust IRF3 induction in WT THF, IPS1 KO, and STING KO, but not in the TRIF KO, showing that LPS induction is TRIF-dependent. […] Assessment of fold change IRF3 was determined via measurement of the interferon dependent luciferase reporter.

Compound	CC50 (J774-Dual cells) [µM]	antibody titers to CHIKV (Anti-CHIKV Total IgG) compared to VLP alone ([1]; VLP + 5 mg/kg)	antibody titers to CHIKV (Anti-CHIKV Total IgG) compared to VLP alone ([1]; VLP + 10 mg/kg)	induction of IP-10 in mBMDMs [2]	off-target inflammatory activity in mBMDMs [3]	cytokine induction in mBMDMs (IL6, MCP3, Rantes, TNFa, MCP1, Mip1b, Mip1a, Gro-alpha) vs vehicle [3]	TRIF-dependency of IRF3 induction [4]
COc1ccc(C(=O)Nc2cc(-c3nc4ccccc4s3)ccc2C)cc1[N+](=O)[O-] [ND52, N-[5-(1,3-benzothiazol-2-yl)-2-methylphenyl]-4-methoxy-3-nitrobenzamide]	101						
CCOc1cccc(COc2ccc(C(=O)Nc3ccc(N4CCN(C(=O)c5cccs5)CC4)cc3)cc2)c1 [NA-42, 4-((3-ethoxybenzyl)oxy)-N-(4-(4-(thiophene-2-carbonyl)piperazin-1-yl)phenyl)benzamide]		robustly enhances	robustly enhances	IRF3 dependent induction	minimal off-target inflammatory activity	IRF3 dependent cytokine induction	TRIF dependent
COc1ccc(C(=O)Nc2cc(-c3nc4cc(C)c(C)cc4o3)ccc2C)cc1[N+](=O)[O-] [ND-13, N-(5-(5,6-dimethylbenzo[d]oxazol-2-yl)-2-methylphenyl)-4-methoxy-3-nitrobenzamide]			robustly enhances	IRF3 dependent induction	minimal off-target inflammatory activity	IRF3 dependent cytokine induction	TRIF-dependent
COc1ccc(C(=O)Nc2cc(-c3nc4ccccc4s3)ccc2C)cc1[N+](=O)[O-] [ND-38]	> 25						
